Laboratory results from US20070099855A1 (priority 2003, published 2007).

Assays:
[1] = in vitro; conditions: African green monkey
[2] = test system: SARS-associated coronavirus; assay type: cell-based; conditions: added to the culture medium; results not shown
[3] = test system: FipV (Feline infectious peritonitis Virus); experiment: microbe, parasite or virus in culture; assay type: cell-based
[4] = test system: TGEV (Transmissible gastroenteritis Virus); experiment: microbe, parasite or virus in culture; assay type: cell-based
[5] = test system: CRFK cells; conditions: cat
[6] = test system: Vero cells; conditions: African green monkey
[7] = test system: FipV; assay type: cell-based, Feline infectious peritonitis Virus; conditions: 500 μM
[8] = test system: SARS-associated coronavirus; assay type: cell-based; conditions: Vero cells, 72 hours after infection
[9] = test system: TGEV; assay type: cell-based, Transmissible gastroenteritis Virus; conditions: 500 μM
[10] = test system: nitrous oxide synthase; assay type: cell-based

**Q.** With `O=c1cnn([C@@H]2O[C@H](CO)[C@@H](O)[C@H]2O)c(=O)[nH]1` [Compound 6-azauridine, 6-azauridine] as the compound, how does the CC50 [1] read?
**A.** Its CC50 is 104 µg/mL.

**Q.** With `COC(=O)[C@@]1(C)CC[C@]2(C)CC[C@]3(C)C(=CC(=O)C4[C@@]5(C)CCC(OC6OC(C(=O)NN)C(O)C(O)C6OC6OC(C(=O)NN)C(O)C(O)C6O)C(C)(C)C5CC[C@]43C)C2C1` (stereo partly drawn) [Compound 7] as the compound, how does the CC50 [1] read?
**A.** Its CC50 is 66 µM.

**Q.** With `COC(=O)[C@@]1(C)CC[C@]2(C)CC[C@]3(C)C(=CC(=O)C4[C@@]5(C)CCC(OC6OC(CO)C(O)C(O)C6OC6OC(CO)C(O)C(O)C6O)C(C)(C)C5CC[C@]43C)C2C1` (stereo partly drawn) [Compound 8] as the compound, how does the CC50 [1] read?
**A.** Its CC50 is 44 µM.

**Q.** With `NCCN(CCN)/[N+]([O-])=N/O` [DETANONOate] as the compound, how does the SARS-associated coronavirus replication [2] read?
**A.** Its SARS-associated coronavirus replication is “replication was inhibited”.

**Q.** For `CC1(C)C(OC2OC(C(=O)O)C(O)C(O)C2OC2OC(C(=O)O)C(O)C(O)C2O)CC[C@@]2(C)C1CC[C@]1(C)C2C(=O)C=C2C3C[C@@](C)(C(=O)O)CC[C@]3(C)CC[C@]21C.N` (stereo partly drawn) [Glycyrrhizin Monoammonium Salt], which “inhibition of CPE, FipV” value [3] is on record?
**A.** The value was “Partial inhibition”.

**Q.** And the EC50 ([3]; Alphacoronavirus 1, CRFK, 48 h, read-out: EC50, FipV)?
**A.** The EC50 was less than 500 µM.

**Q.** And the CC50 [1]?
**A.** The CC50 was 625 µM.

**Q.** And the “inhibition of CPE, TGEV” value [4]?
**A.** Its value is “Partial inhibition”.

**Q.** What about the EC50 ([4]; Alphacoronavirus 1, CRFK, 48 h, read-out: EC50, TGEV) of the same compound?
**A.** The EC50 was less than 500 µM.

**Q.** What about the “Tox. CRFK cells” value [5] of the same compound?
**A.** Its value is greater than 1 mM.

**Q.** With `CC1(C)C(OC2OC(C(=O)O)C(O)C(O)C2OC2OC(C(=O)O)C(O)C(O)C2O)CC[C@]2(C)[C@H]3C(=O)C=C4[C@@H]5C[C@@](C)(C(=O)O)CC[C@]5(C)CC[C@@]4(C)[C@]3(C)CC[C@@H]12` (stereo partly drawn) [Glycyrrhizin, (3-beta,20-beta)-20-Carboxy-11-oxo-30-norolean-12-en-3-yl 2-O-beta-D-glucopyranuronosyl-alpha-D-glucopyranosiduronic acid] as the compound, how does the CC50 [1] read?
**A.** The CC50 was greater than 20000 µg/mL.

**Q.** What about the cytotoxicity [1] of the same compound?
**A.** Its cytotoxicity is 20 to 30%.

**Q.** And the CC50 [6]?
**A.** Its CC50 is >20,000 mg/L.

**Q.** And the “virus replication, FipV” value [7]?
**A.** Its value is “significantly reduced”.

**Q.** What about the “expression of viral antigens” value ([8]; 1000 mg/L) of the same compound?
**A.** Its value is “much lower”.

**Q.** What about the “replication of the virus” value ([8]; 4000 mg/L) of the same compound?
**A.** The value was “completely blocked replication of the virus”.

**Q.** What about the “virus replication, TGEV” value [9] of the same compound?
**A.** The value was “significantly reduced”.

**Q.** And the “induction of nitrous oxide synthase” value [10]?
**A.** The value was “induced nitrous oxide synthase”.

**Q.** For `COc1c(C)c2c(c(O)c1C/C=C(\C)CCC(=O)O)C(=O)OC2` [Mycophenolic acid], which CC50 [1] is on record?
**A.** Its CC50 is greater than 50 µg/mL.

**Q.** With `NC(=O)c1[nH]nc([C@@H]2O[C@H](CO)[C@@H](O)[C@H]2O)c1O` [Pyrazofurin] as the compound, how does the CC50 [1] read?
**A.** Its CC50 is 52 µg/mL.

**Q.** With `NC(=O)c1ncn([C@@H]2O[C@H](CO)[C@@H](O)[C@H]2O)n1` [Ribavirin] as the compound, how does the CC50 [1] read?
**A.** Its CC50 is greater than 1000 µg/mL.
